Test results published in patent US8026218B2, “Bifunctional analgesic compounds for opioid receptor agonists and neurokinin-1 receptor antagonists” (The University of Arizona, priority 2006, dated 2011).
Like-named read-outs stand apart in the source and are kept apart here. Peptide text beside a SMILES is read from it.

Columns and labels:
[1] = molecular target: T1, rat NK1 (rNK1) receptor (Rattus norvegicus, UniProt P14600); assay: Radioligand competition binding, [3H]substance P, rNK1/CHO membranes; details: for IC50: LogIC50, rNK1, [3H]Substance P, logarithm of IC50 (negative)
T1 construct: expressed in transfected cells; host or cells: CHO (rNK-1/CHO cell line from Dr. James Krause)
T1 sequence (P14600 whole entry): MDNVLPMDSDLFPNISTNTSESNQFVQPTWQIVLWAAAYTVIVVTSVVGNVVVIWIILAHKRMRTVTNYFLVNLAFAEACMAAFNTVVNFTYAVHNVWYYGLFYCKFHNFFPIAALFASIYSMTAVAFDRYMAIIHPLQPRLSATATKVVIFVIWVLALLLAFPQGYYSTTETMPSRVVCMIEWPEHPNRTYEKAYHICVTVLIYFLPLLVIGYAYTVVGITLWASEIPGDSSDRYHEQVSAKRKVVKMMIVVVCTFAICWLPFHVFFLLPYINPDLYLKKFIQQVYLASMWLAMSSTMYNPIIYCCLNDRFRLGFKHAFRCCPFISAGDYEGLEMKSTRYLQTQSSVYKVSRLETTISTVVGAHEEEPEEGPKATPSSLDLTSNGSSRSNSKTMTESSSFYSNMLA

[2] = Octanol/saline distribution (logD7.4); format: physicochemical; details: 0.05 N HEPES buffer in 0.1 N NaCl
Experimental: HEPES buffer (0.05 M HEPES buffer in 0.1 M NaCl, pH 7.4, 500 μL) was added to 2 mg of compound and mixed with 500 μL of 1-octanol. The sample was shaken at r.t. for 12 h to allow equilibrating. The sample was centrifuged at 6500 rpm in a VanGuard V6500 (GlaxoSmithKline, Research Triangle Park, N.C.) for 15 min. The layers were separated and each layer was centrifuged once again. The compound concentrations of obtained layers were analyzed by HPLC (30-70% of acetonitrile containing 0.1% TFA within 20 min and up to 95% within additional 5 min, 1 mL/min, 230 nm, Vydac 218TP104 C-18 column). The logarithm of 1-octanol/saline distribution (logD7.4) was calculated as the ratio of compound concentration in the 1-octanol and saline phases.
Octanol/saline distribution (logD7.4) (Yamamoto, 2007, J. Med. Chem., submitted). HEPES buffer (0.05 M HEPES buffer in 0.1 M NaCl, pH 7.4, 500 μL) was added to 2 mg of compound and mixed with 500 μL of 1-octanol. The sample was shaken at r.t. for 12 h to allow equilibrating. The sample was centrifuged at 6500 rpm in a VanGuard V6500 (GlaxoSmithKline, Research Triangle Park, N.C.) for 15 min. The layers were separated and each layer was centrifuged once again. The compound concentrations in the obtained layers were analyzed by HPLC (30-70% of acetonitrile containing 0.1% TFA within 20 min and up to 95% within additional 5 min, 1 mL/min, 230 nm, Vydac 218TP104 C-18 column). The logarithm of 1-octanol/saline distribution (logD7.4) was calculated as the ratio of compound concentration in the 1-octanol and saline phases.

[3] = molecular target: T2, human NK1 receptor (hNK1) (Homo sapiens, UniProt P25103); assay: Radioligand competition binding, [3H]-Substance P, hNK1
T2 construct: expressed in transfected cells
T2 sequence (P25103 whole entry): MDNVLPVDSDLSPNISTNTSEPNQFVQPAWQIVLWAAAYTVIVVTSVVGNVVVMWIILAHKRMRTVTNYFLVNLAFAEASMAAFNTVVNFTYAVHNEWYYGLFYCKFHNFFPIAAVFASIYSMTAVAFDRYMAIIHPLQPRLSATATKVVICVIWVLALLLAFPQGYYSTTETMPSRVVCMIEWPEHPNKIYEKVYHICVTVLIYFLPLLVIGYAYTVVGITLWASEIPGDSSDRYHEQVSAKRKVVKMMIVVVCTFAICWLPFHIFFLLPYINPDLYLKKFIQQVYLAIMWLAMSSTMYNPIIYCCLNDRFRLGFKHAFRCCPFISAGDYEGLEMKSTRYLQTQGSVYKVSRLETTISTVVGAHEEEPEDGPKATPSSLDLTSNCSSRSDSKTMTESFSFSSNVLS

[4] = In vitro stability in rat plasma at 37° C.; format: in vitro ADME; details: rat, rat plasma, read-out: half life (T1/2) in rat plasma (converted)
Experimental: The derivative compounds were tested for their metabolite stability. The compounds were incubated in rat plasma at 37° C., and aliquots were withdrawn at various time points and analyzed by HPLC to determine the concentration of remaining compound derivatives (FIGS. 15-16, 36, and 47-48).
In Vitro Stability of compound derivatives in Rat Plasm (Yamamoto, 2007, J. Am. Chem. Soc. submitted). Stock solution of compounds (50 mg/mL in DMSO) were diluted 1000-fold into rat plasma (Lot 24927, Pel-Freez Biologicals, Rogers, Ak.) to result in an incubation concentration of 50 μg/mL. All samples were incubated at 37° C. for 6 h, and 200 μL of aliquots were withdrawn at 1 h, 2 h, 4 h and 6 h. […] The samples were run in triplicate. Discussion.

[5] = molecular target: T3, human δ opioid receptors (hDOR) (Homo sapiens, UniProt P41143); assay: [35S]GTP-γ-S binding assay, hDOR; format: biochemical
T3 construct: expressed in transfected cells; host or cells: HN9.10 neuroblastoma cell line, pCDNA3, neomycin-selected clones
T3 sequence (P41143 whole entry): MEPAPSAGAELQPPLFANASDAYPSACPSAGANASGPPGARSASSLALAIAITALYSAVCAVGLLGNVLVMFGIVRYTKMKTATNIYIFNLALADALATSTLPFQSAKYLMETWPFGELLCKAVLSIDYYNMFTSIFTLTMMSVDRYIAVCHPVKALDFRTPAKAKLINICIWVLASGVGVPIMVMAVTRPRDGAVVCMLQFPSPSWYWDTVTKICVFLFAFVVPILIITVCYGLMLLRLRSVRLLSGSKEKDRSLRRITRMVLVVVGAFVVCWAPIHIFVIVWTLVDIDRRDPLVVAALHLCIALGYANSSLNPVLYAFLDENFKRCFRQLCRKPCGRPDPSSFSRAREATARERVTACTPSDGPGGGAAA

[6] = molecular target: T4, rat μ opioid receptors (rMOR) (Rattus norvegicus, UniProt P33535); assay: biochemical; format: biochemical
T4 construct: expressed in transfected cells; host or cells: HN9.10 neuroblastoma cell line, pCDNA3, neomycin-selected clones
T4 sequence (P33535 whole entry): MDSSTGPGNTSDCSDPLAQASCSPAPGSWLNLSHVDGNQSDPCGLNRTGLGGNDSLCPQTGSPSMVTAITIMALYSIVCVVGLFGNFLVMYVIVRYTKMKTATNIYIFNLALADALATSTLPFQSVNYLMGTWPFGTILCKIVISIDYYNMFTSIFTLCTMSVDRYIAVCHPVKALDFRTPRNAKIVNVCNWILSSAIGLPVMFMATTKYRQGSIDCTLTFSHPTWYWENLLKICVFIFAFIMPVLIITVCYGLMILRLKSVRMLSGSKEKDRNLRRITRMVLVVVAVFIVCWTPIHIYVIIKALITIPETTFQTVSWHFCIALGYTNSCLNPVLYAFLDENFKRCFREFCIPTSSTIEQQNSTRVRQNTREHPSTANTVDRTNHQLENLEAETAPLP

[7] = molecular target: T3, human δ opioid receptors (hDOR); assay: Radioligand competition binding, [3H]DPDPE, hDOR membranes
[8] = molecular target: T5, Substance P receptors (guinea pig NK1) (Cavia porcellus, UniProt P30547); assay: Guinea pig isolated ileum (GPI) assay with substance P stimulation in presence of 1 μM naloxone
T5 construct: from tissue; host or cells: guinea pig (Hartley) ileum LMMP, 1 μM naloxone present
T5 sequence (P30547 whole entry): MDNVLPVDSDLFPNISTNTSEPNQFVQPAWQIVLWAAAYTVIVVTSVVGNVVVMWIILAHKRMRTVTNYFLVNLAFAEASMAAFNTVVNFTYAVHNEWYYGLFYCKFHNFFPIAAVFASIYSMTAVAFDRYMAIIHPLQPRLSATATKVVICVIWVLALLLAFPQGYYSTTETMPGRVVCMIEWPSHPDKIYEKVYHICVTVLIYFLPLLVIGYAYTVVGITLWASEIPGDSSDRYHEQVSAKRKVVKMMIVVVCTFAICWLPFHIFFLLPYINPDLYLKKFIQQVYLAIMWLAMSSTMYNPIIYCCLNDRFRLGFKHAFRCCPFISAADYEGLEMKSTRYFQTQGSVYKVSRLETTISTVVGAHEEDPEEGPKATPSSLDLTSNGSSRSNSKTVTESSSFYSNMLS

[9] = tested on: μ opioid receptors (GPI); assay: Guinea pig isolated ileum (GPI) assay, opioid agonist;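 note: inhibition of electrically evoked contractions (0.1 Hz, 0.4 msec, supramaximal voltage) in organ baths at 37 °C, contraction height 3 min after each cumulative dose versus the 1 min before dosing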
Experimental: Guinea Pig Isolated Ileum Assay. […] These tissues were tied to gold chains with suture silk and mounted between platinum wire electrodes in 20 mL organ baths at a tension of 1 g and bathed in oxygenated (95:5 O2:CO2) Kreb's bicarbonate buffer at 37° C. and stimulated electrically (0.1 Hz, 0.4 msec duration) at supramaximal voltage. Following an equilibration period, compounds were added cumulatively to the bath in volumes of 14-60 μL until maximum inhibition was reached. A baseline PL-017 was constructed to determine tissue integrity and allow calculation of antagonist activity before opioid analog testing began.
For opioid data analysis, percentage inhibition was calculated using the average tissue contraction height for 1 min preceding the addition of the agonist divided by the contraction height 3 min after exposure to the dose of agonist. […] IC50 and Emax estimates were determined by computerized nonlinear least-squares analysis (the pharmacological statistics package FlashCalc: Dr. Michael Ossipov, University of Arizona, Tucson, Ariz.). […] A50 values represent the mean of not less than 4 tissues. A50 and Emax estimates were determined by computerized nonlinear least-squares analysis (FlashCalc).

[10] = molecular target: T4, rat μ opioid receptors (rMOR); assay: Radioligand competition binding, [3H]DAMGO, rMOR membranes
[11] = molecular target: T6, δ opioid receptors (MVD) (Mus musculus, UniProt P32300); assay: Mouse isolated vas deferens (MVD) assay, opioid agonist
T6 construct: from tissue; host or cells: mouse (ICR) isolated vas deferens
T6 sequence (P32300 whole entry): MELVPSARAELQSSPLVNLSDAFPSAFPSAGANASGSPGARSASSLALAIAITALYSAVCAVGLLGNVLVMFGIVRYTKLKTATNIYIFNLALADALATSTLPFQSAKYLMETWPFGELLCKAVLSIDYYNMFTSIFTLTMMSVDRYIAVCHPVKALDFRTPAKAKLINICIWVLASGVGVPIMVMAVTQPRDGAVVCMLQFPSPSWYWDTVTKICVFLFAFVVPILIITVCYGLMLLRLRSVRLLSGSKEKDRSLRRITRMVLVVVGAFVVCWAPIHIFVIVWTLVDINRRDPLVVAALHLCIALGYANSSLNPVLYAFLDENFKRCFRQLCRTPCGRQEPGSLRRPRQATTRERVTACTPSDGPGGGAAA

## CC(C)C[C@H](NC(=O)[C@@H]1CCCN1C(=O)[C@H](Cc1ccccc1)NC(=O)CNC(=O)[C@@H](C)NC(=O)[C@@H](N)Cc1ccc(O)cc1)C(=O)N[C@@H](Cc1c[nH]c2ccccc12)C(=O)N(C)Cc1ccccc1 [TY010, H-Tyr-D-Ala-Gly-Phe-Pro-Leu-Trp-NMe-Bzl]
[1]; read-out: Inhibition % at 1 μM, rNK1, [3H]Substance P
  inhibition at 1 µM: 33 ± 7.6%
[2]
  logD7.4: 3.5
[3]
  IC50: 3.16 nM
  Ki: 100 nM
[3]; read-out: Ki, hNK1
  Ki: 1.6 nM

## CC(C)C[C@H](NC(=O)[C@@H]1CCCN1C(=O)[C@H](Cc1ccccc1)NC(=O)CNC(=O)[C@@H](C)NC(=O)[C@@H](N)Cc1ccc(O)cc1)C(=O)N[C@@H](Cc1c[nH]c2ccccc12)C(=O)OCc1ccccc1 [TY011, H-Tyr-DAla-Gly-Phe-Pro-Leu-Trp-O-Bzl]
[1]; Table 6, CHO cell membranes
  IC50: 794 nM
[1]; read-out: Ki, rNK1
  Ki: 270 nM
[2]
  logD7.4: 3.8
[3]
  IC50: 200 nM
[3]; read-out: Ki, hNK1
  Ki: 100 nM

## CCCC[C@@H]1NC(=O)[C@H](Cc2ccccc2)NC(=O)CNC(=O)[C@H](NC(=O)[C@@H](N)Cc2ccc(O)cc2)CSSC[C@@H](C(=O)N[C@@H](Cc2c[nH]c3ccccc23)C(=O)NCc2cc(C(F)(F)F)cc(C(F)(F)F)c2)NC(=O)[C@@H]2CCCN2C1=O [TY035, [D-Cys^2, Cys^7]TY027] (HELM PEPTIDE1{Y.[dC].G.F.[Nle].P.C.W.[FC(F)(F)c1cc(CN[*:1])cc(C(F)(F)F)c1]}$PEPTIDE1,PEPTIDE1,2:R3-7:R3$$$V2.0; N-terminus assumed)
[4]
  half-life at 50 μg/mL: > 6 h
[1]; Table 20, CHO cell membranes
  IC50: 100 nM
[1]; Table 20, species ratio
  Ki(hNK1)/Ki(rNK1): 30
[1]; Table 39, read-out: Affinity rNK1 (Ki; nM)
  Ki: 30 nM
[1]; read-out: Ki (nM), rNK1, [3H]Substance P, Table 20, CHO cell membranes
  Ki: 30 nM
[5]; Table 21, HN9.10 cell, read-out: EC50 (nM), hDOR
  EC50: 0.02 nM
[5]; Table 21, logarithm of EC50 (negative), HN9.10 cell, read-out: LogEC50, hDOR (converted)
  EC50: 0.0158 nM
[5]; Table 21, net total bound/basal binding × 100, read-out: Emax (%), hDOR
  Emax: 11%
[5]; Table 39, read-out: GTP binding hDOR EC50
  EC50: 0.02 nM
[5]; Table 39, read-out: GTP binding hDOR Emax
  Emax: 11%
[5]; net total bound/basal binding × 100, read-out: Emax, hDOR, [35S]GTP-γ-S binding
  Emax: < 20%
[6]; LogEC50, rMOR
  EC50: 39.8 nM
[6]; read-out: EC50 (nM), rMOR
  EC50: 36 nM
[6]; read-out: Emax (%), rMOR
  Emax: 41%
[6]; read-out: GTP binding rMOR EC50
  EC50: 36 nM
[6]; read-out: GTP binding rMOR Emax
  Emax: 39%
[7]
  IC50: 2.51 nM
[7]; read-out: Ki, hDOR, [3H]DPDPE
  Ki: 1.3 nM
[8]; Substance P antagonist, GPI, Ke (nM), Table 22, in the presence of 1 μM naloxone
  Kb: 2.2 ± 0.6 nM
[8]; Table 39, at 30 nM
  GPI/LMMP SP Agonist (IC50; nM): none
[9]; Table 22, electrically stimulated isolated tissue, read-out: Opioid agonist GPI (μ), IC50
  IC50: 1000 ± 200 nM
[9]; Table 39, read-out: GPI/LMMP opioid(mu) agonist (IC50; nM)
  IC50: 1010 nM
[10]
  IC50: 158 nM
[10]; Table 20, ratio rMOR Ki / hDOR Ki
  Ki(μ)/Ki(δ): 61
[10]; read-out: Ki, rMOR, [3H]DAMGO
  Ki: 79 nM
[11]; Table 22, electrically stimulated isolated tissue, read-out: Opioid agonist MVD (δ), IC50
  IC50: 85 ± 18 nM
[11]; Table 39, read-out: MVD opioid(delta) agonist (IC50; nM)
  IC50: 84.7 nM
[3]
  IC50: 0.2 nM
[3]; read-out: Ki, hNK1
  Ki: 0.1 nM
